Here are results for 18 compounds from patent US10695334B2, “Heteroaromatic carboxamide derivatives as plasma kallikrein inhibitors” (Boehringer Ingelheim International GmbH, priority 2018, dated 2020).

In this experiment the target is Human PKK (Homo sapiens (Human), UniProt P03952). The experiment is described as follows: Inhibition of PKK, endpoint assay (human PKK). Type of experiment: biochemical. The note with it: substrate H-Pro-Phe-Arg-AMC, 1 h room temperature. The method, then:
Subsequently, PPACK II (Calbiochem) was added as a stop solution to achieve a final concentration of 1 μM and fluorescence was measured using an Envision Reader (PerkinElmer) with the wavelength excitation setting of 355 nm and the wavelength emission setting of 460 nm.

Molecules are shown by their SMILES.

Chain of Human PKK (P03952 391-638): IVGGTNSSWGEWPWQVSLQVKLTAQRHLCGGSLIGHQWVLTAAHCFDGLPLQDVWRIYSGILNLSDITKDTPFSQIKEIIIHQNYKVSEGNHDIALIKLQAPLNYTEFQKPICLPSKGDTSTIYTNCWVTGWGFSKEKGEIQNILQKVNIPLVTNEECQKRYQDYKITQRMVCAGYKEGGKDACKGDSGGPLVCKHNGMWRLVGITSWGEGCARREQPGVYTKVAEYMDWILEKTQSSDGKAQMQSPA
Chain of Human PKK (P03952 20-390 partner): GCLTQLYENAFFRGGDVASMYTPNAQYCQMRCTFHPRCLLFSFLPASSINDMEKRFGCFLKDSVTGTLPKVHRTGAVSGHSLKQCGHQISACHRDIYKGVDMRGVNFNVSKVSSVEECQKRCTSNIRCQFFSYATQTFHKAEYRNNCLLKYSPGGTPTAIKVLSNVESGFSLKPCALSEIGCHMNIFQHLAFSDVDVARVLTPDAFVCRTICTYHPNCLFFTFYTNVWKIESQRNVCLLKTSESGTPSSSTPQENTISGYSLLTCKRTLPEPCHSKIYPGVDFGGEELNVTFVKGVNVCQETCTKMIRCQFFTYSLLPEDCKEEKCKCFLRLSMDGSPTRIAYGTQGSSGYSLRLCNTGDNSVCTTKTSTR

As for `Cc1nc(N2CCC3C(CC2)C3(F)F)ccc1Cn1cc(C(=O)N[C@@H]2CCc3c2n[nH]c3C)cn1` (stereo partly drawn) [Example 66, 1-[(6-{8,8-Difluoro-4-azabicyclo[5.1.0]octan-4-yl]-2-methylpyridin-3-yl)methyl]-N-[(6R)-3-methyl-2H,4H,5H,6H-cyclopenta[c]pyrazol-6-yl]-1H-pyrazole-4-carboxamide], half-maximal inhibition (IC50) was put at 51 nM.
In the case of `Cc1nc(N2CCC3(CCOC3)C2)ccc1Cn1cc(C(=O)N[C@@H]2CCc3c2n[nH]c3C)cn1` (stereo partly drawn) [Example 73, N-[(6R)-3-Methyl-2H,4H,5H,6H-cyclopenta[c]pyrazol-6-yl]-1-[(2-methyl-6-{2-oxa-7-azaspiro[4.4]nonan-7-yl}pyridin-3-yl)methyl]-1H-pyrazole-4-carboxamide], the IC50 is 17 nM.
To `COC1C2CC1CN(c1ccc(Cn3cc(C(=O)N[C@@H]4CCc5c4n[nH]c5C)cn3)c(C)n1)C2` (stereo partly drawn) [Example 53, 1-[(6-{6-methoxy-3-azabicyclo[3.1.1]heptan-3-yl}-2-methylpyridin-3-yl)methyI]-N-[(6R)-3-methyl-2H,4H,5H,6H-cyclopenta[c]pyrazol-6-yl]-1H-pyrazole-4-carboxamide] belongs 9 nM.
For `Cc1nc(N2CC3CC3C2)ccc1Cn1cnc(C(=O)N[C@@H]2CCc3c2n[nH]c3C)n1` (stereo partly drawn) [Example 107, 1-[(6-{3-Azabicyclo[3.1.0]hexan-3-yl}-2-methylpyridin-3-yl)methyl]-N-[(6R)-3-methyl-2H,4H,5H,6H-cyclopenta[c]pyrazol-6-yl]-1H-1,2,4-triazole-3-carboxamide] the value was 7 nM; for `Cc1nc(N2C[C@@H]3CNC(=O)[C@@H]3C2)ccc1Cn1cc(C(=O)N[C@@H]2CCc3c2n[nH]c3C)cn1` [Example 50, 1-({6-[(3aS,6aS)-4-Oxo-octahydropyrrolo[3,4-c]pyrrol-2-yl]-2-methylpyridin-3-yl}methyl)-N-[(6R)-3-methyl-2H,4H,5H,6H-cyclopenta[c]pyrazol-6-yl]-1H-pyrazole-4-carboxamide], 8 nM; for `Cc1nc(N2CC(CO)C2)ccc1Cn1cc(C(=O)N[C@@H]2CCc3c2n[nH]c3C)cn1` [Example 56, 1-({6-[3-(Hydroxymethyl)azetidin-1-yl]-2-methylpyridin-3-yl}methyl)-N-[(6R)-3-methyl-2H,4H,5H,6H-cyclopenta[c]pyrazol-6-yl]-1H-pyrazole-4-carboxamide], 56 nM.
`Cc1nc(N2CC3(CC3)C2)ncc1Cn1cc(C(=O)N[C@@H]2CCc3c(C)n[nH]c32)cn1` [Example 30, 1-[(2-{5-Azaspiro[2.3]hexan-5-yl}-4-methyl-pyrimidin-5-yl)methyl]-N-[(6R)-3-methyl-1H,4H,5H,6H-cyclopenta[c]pyrazol-6-yl]-1H-pyrazole-4-carboxamide] had an IC50 of 8 nM.
Compound `Cc1nc(N2CC(C#N)C2)ccc1Cn1cc(C(=O)N[C@@H]2CCc3c2n[nH]c3C)cn1` [Example 57, 1-{[6-(3-Cyanoazetidin-1-yl)-2-methylpyridin-3-yl]methyl}-N-[(6R)-3-methyl-2H,4H,5H,6H-cyclopenta[c]pyrazol-6-yl]-1H-pyrazole-4-carboxamide] displayed an IC50 of 37 nM.
`Cc1nc(N2CC(F)(C(F)(F)F)C2)ccc1Cn1cc(C(=O)N[C@@H]2CCc3c2n[nH]c3C)cn1` [Example 74, 1-({6-[3-Fluoro-3-(trifluoromethyl)azetidin-1-yl]-2-methylpyridin-3-yl}methyl)-N-[(6R)-3-methyl-2H,4H,5H,6H-cyclopenta[c]pyrazol-6-yl]-1H-pyrazole-4-carboxamide] came in with a half-maximal inhibitory concentration (IC50) of 38 nM.
Turning to `Cc1nc(N2CC3COCC(C3)C2)ccc1Cn1cc(C(=O)N[C@@H]2CCc3c2n[nH]c3C)cn1` [Example 43, N-[(6R)-3-Methyl-2H,4H,5H,6H-cyclopenta[c]pyrazol-6-yl]-1-[(2-methyl-6-{3-oxa-7-azabicyclo[3.3.1]nonan-7-yl]pyridin-3-yl)methyl]-1H-pyrazole-4-carboxamide], inhibition was half-maximal at 23 nM (IC50).
Take `Cc1nc(N2CC3(CC(O)C3)C2)ccc1Cn1cc(C(=O)N[C@@H]2CCc3c2n[nH]c3C)cn1` [Example 76, 1-[(6-{6-Hydroxy-2-azaspiro[3.3]heptan-2-yl}-2-methylpyridin-3-yl)methyl]-N-[(6R)-3-methyl-2H,4H,5H,6H-cyclopenta[c]pyrazol-6-yl]-1H-pyrazole-4-carboxamide]: the IC50 was determined as 572 nM.
Compound `Cc1nc(N2CC[C@](C)(O)C2)ccc1Cn1cc(C(=O)N[C@@H]2CCc3c2n[nH]c3C)cn1` [Example 83, 1-({6-[(3S)-3-Hydroxy-3-methylpyrrolidin-1-yl]-2-methylpyridin-3-yl}methyl)-N-[(6R)-3-methyl-2H,4H,5H,6H-cyclopenta[c]pyrazol-6-yl]-1H-pyrazole-4-carboxamide] displayed an IC50 of 41 nM.
Compound `Cc1nc(N2C[C@@H]3[C@@H](O)[C@@H]3C2)ccc1Cn1cc(C(=O)N[C@@H]2CCc3c2n[nH]c3C)cn1` [Example 59, 1-({6-[(1R,5S,6R)-6-Hydroxy-3-azabicyclo[3.1.0]hexan-3-yl]-2-methylpyridin-3-yl}methyl)-N-[(6R)-3-methyl-2H,4H,5H,6H-cyclopenta[c]pyrazol-6-yl]-1H-pyrazole-4-carboxamide] yielded an IC50 of 17 nM.
For `Cc1nc(N2C[C@@H]3CC(F)(F)C[C@@H]3C2)ccc1Cn1cc(C(=O)N[C@@H]2CCc3c2n[nH]c3C)cn1` [Example 75, 1-({6-[(3aR,6aS)-5,5-Difluoro-octahydrocyclopenta[c]pyrrol-2-yl]-2-methylpyridin-3-yl}-methyl)-N-[(6R)-3-methyl-2H,4H,5H,6H-cyclopenta[c]pyrazol-6-yl]-1H-pyrazole-4-carboxamide], inhibition was half-maximal at 19 nM (IC50).
To `Cc1nc(N2CC3(C2)CC3(F)F)ccc1Cn1cc(C(=O)N[C@@H]2CCc3c2n[nH]c3C)cn1` [Example 51, 1-[(6-{1,1-Difluoro-5-azaspiro[2.3]hexan-5-yl}-2-methylpyridin-3-yl)methyl]-N-[(6R)-3-methyl-2H,4H,5H,6H-cyclopenta[c]pyrazol-6-yl]-1H-pyrazole-4-carboxamide] belongs 25 nM; to `Cc1nc(N2CC3(CCOC3)C2)ccc1Cn1cc(C(=O)N[C@@H]2CCc3c2n[nH]c3C)cn1` [Example 40, N-[(6R)-3-Methyl-2H,4H,5H,6H-cyclopenta[c]pyrazol-6-yl]-1-[(2-methyl-6-{6-oxa-2-azaspiro[3.4]octan-2-yl]pyridin-3-yl)methyl]-1H-pyrazole-4-carboxamide], 137 nM; to `COCc1nn(Cc2cnc(N3CC4C(C3)C4(F)F)nc2C)cc1C(=O)N[C@@H]1CCc2c(C)n[nH]c21` (stereo partly drawn) [Example 26, 1-[(2-{6,6-Difluoro-3-azabicyclo[3.1.0]hexan-3-yl}-4-methylpyrimidin-5-yl)methyl]-3-(methoxy-methyl)-N-[(6R)-3-methyl-1H,4H,5H,6H-cyclo-penta[c]pyrazol-6-yl]-1H-pyrazole-4-carboxamide], 3 nM.
In the case of `Cc1nc(N2CC3C(C2)C3(F)F)ncc1Cn1cc(C(=O)N[C@@H]2CCc3c(C)n[nH]c32)c(C)n1` (stereo partly drawn) [Example 27, 1-[(2-{6,6-Difluoro-3-azabicyclo[3.1.0]hexan-3-yl}-4-methylpyrimidin-5-yl)methyl]-3-methyl-N-[(6R)-3-methyl-1H,4H,5H,6H-cyclopenta[c]pyrazol-6-yl]-1H-pyrazole-4-carboxamide], half-maximal inhibition (IC50) required 3 nM.
